# Experimental data from patent US20190255175A1, “ACTIVATION OF TRPA1+ NOCICEPTORS IN THE VAGUS NERVE ATTENUATES SYSTEMIC INFLAMMATION” (THE FEINSTEIN INSTITUTE FOR MEDICAL RESEARCH, priority 2018, published 2019).
# Test: Thermoregulation: intraperitoneal body temperature recorded by implant after IL-1β injection
# Assay type: in vivo, mice
# Settings: for Change in ip body temperature: WT mice
# Procedure: FIG. 5A-5B. […] Body temperature was recorded using an ETA-F10 temperature implant (DSI New Brighton, Minn.) that was placed in the peritoneal cavity and fixed to the peritoneal wall. After recording the baseline temperature for 1 hr, rmIL-1β (5.0 μg/kg) was administered by i.p injection. Body temperature of wildtype (n=4) and TRPA1 KO mice (n=4) was recorded for 5 hours post injection. ****p<0.0001. B) IL-1β induces a dose-dependent hypothermic response in mice. After recording the baseline temperature for 1 hr, rmIL-1β (0 [n=4], 0.5 [n=4], 50.0 [n=3] μg/kg) was administered by i.p injection. Body temperature was recorded for 5 hours post injection.
# Mice were anesthetized with 2.5% isoflurane with an oxygen flow of 1 L/min. Once anesthetized, the mouse was moved to a supine position with the isoflurane maintained at 2.0% during surgery. A midline incision was made above the peritoneal cavity, with a ETA-F10 temperature implant (DSI New Brighton, Minn.) placed in the peritoneal cavity and tacked to the peritoneal wall. The cavity was then closed, and the mouse monitored every day for 3 days. The mouse was allowed to recover for a minimum of five days prior to any manipulation. The mice were placed on the DIS with baseline ip body temperature recorded for 1 hour prior to IL-1β or saline injection. The ip body temperature recording then continued for 5 hours post injection.
# Thermoregulation, specifically in cold sensing, is another major function of the TRPA1 ion channel. When housed at approximately 23° C., WT mice injected with murine IL-1β (5 μg/kg) have significant decrease in body temperature (t-test, p<0.0001) peaking at a temperature change of −2.3±0.15° C., while TRPA1 KO mice have no significant change in body temperature after IL-1β (5 μg/kg) peaking at 0.18±0.40° C. (FIG. 5A). […] However, there was no significant change in ip body temperature after saline ([…]) (t-test, p>0.05) (FIG. 5B). This indicates a previously unknown mechanism of IL-1β fever singling through TRPA1+ fibers of the vagus nerve, linking TRPA1's role in both thermoregulation as well as afferent inflammatory signaling through the vague nerve.
substance,measurement,setting,value
"IL-1β: interleukin 1β; recombinant human IL-1β for nerve recordings, murine (rmIL-1β) for thermoregulation",Peak body temperature change,"TRPA1 KO mice, IL-1β 5 μg/kg ip",0.18±0.40 °C
same,Peak body temperature change,"WT mice housed at approximately 23° C., murine IL-1β 5 μg/kg ip",−2.3±0.15 °C
same,Change in ip body temperature,IL-1β 0.5 μg/kg,significant decreases
same,Change in ip body temperature,IL-1β 50 μg/kg,significant decreases
